Test results taken from US11000033B2, “Ketone or oxime compound, and herbicide” (NISSAN CHEMICAL CORPORATION, priority 2014, dated 2021).

What was measured:
Type in all cases: in vivo
[1] = system: rice plant; experiment: Test Example 5: effect on crop by foliage application, plastic box (symbol b); settings: 320 g/ha, 3 weeks after application
Outline: (§1)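 A greenhouse held between 25° C. and 30° C. was used to grow plants sown spot-wise, beneath ~1.5 cm of soil, in boxes of sterilized diluvial soil.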

[2] = system: Echinochloa crus-galli var. crus-galli; experiment: Test Example 4: herbicidal effect by soil treatment (symbol H)
Outline: (§2)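 Seeds were sown in sterilized diluvial soil, covered with about 1.5 cm of soil, and the soil surface was sprayed with a water-diluted emulsion of the compound at a predetermined rate. Plants grew in a greenhouse at 25° C. to 30° C.; effects were scored visually 3 weeks after application.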

[3] = system: Echinochloa oryzacola Vasing.; experiment: Test Example 1: herbicidal activity, application before weed generation in submerged conditions (symbol A); settings: application herbicide amount 320 g/ha
Outline: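 Steps: alluvial soil flooded to 4 cm; weed seeds sown together; rice seedlings (2.5 leaf) transplanted; diluted emulsion applied to water surface the same day as sowing; plants grown at 25–30 °C in greenhouse; herbicidal effect rated on a 0–5 scale at 3 weeks.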

[4] = system: directly sowed rice plant; experiment: Test Example 3: effect on crop by foliage application, Wagner pot (symbol b); settings: application herbicide amount 320 g/ha
Outline: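 Wagner pot (1/10000 are), alluvial soil, submerged 0.1–0.5 cm; sown E. crus-galli var. crus-galli, L. chinensis, C. difformis, rice; greenhouse 25–30 °C.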

[5] = system: rapeseed; experiment: Test Example 5: effect on crop by foliage application, plastic box (symbol g); settings: 320 g/ha, 3 weeks after application
Outline: as §1

[6] = system: Avena fatua; experiment: Test Example 5: herbicidal effect by foliage application, plastic box (symbol I); settings: 320 g/ha, 3 weeks after application
Outline: (§3)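 Post-emergence spray; diluvial soil (sterilized), ~1.5 cm seed cover; greenhouse 25–30° C; 14-day-old plants; water-diluted emulsion at predetermined dose; visual score at 3 wk post-treatment.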

[7] = system: Stellaria media; experiment: Test Example 5: herbicidal effect by foliage application, plastic box (symbol P); settings: 320 g/ha, 3 weeks after application
Outline: as §3

[8] = system: Abutilon theophrasti; experiment: Test Example 4: herbicidal effect by soil treatment (symbol M)
Outline: as §2

[9] = system: Stellaria media; experiment: Test Example 4: herbicidal effect by soil treatment (symbol P)
Outline: as §2

[10] = system: Echinochloa oryzacola Vasing.; experiment: Test Example 2: herbicidal activity, application during weed generation in submerged conditions (symbol A); settings: Table 23; application herbicide amount 320 g/ha; grade 0-5 by criteria of Test Example 1
Outline: (§4)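 Each pot contained alluvial soil under 4 cm of water with seeds of all three weeds sown together. Following growth at 25° C. to 30° C. to the one- to two-leaf stage, the floodwater received diluted emulsion at a predetermined amount; visual assessment followed at 3 weeks.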

[11] = system: Cyperus difformis; experiment: Test Example 3: herbicidal effect by foliage application, Wagner pot (symbol E); settings: application herbicide amount 320 g/ha
Outline: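 Seeds sown in alluvial soil kept under 0.1–0.5 cm water, greenhouse 25–30 °C; 14 d growth. Leaves treated by small sprayer with water-diluted emulsion at a predetermined rate. Effect graded by set scale, 3 weeks.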

[12] = system: Apera spica-venti; experiment: Test Example 5: herbicidal effect by foliage application, plastic box (symbol L); settings: 320 g/ha, 3 weeks after application
Outline: as §3

[13] = system: Digitaria ciliaris; experiment: Test Example 5: herbicidal effect by foliage application, plastic box (symbol F); settings: 320 g/ha, 3 weeks after application
Outline: as §3

[14] = system: Monochoria vaginalis; experiment: Test Example 2: herbicidal activity, application during weed generation in submerged conditions (symbol C); settings: Table 23; application herbicide amount 320 g/ha; grade 0-5 by criteria of Test Example 1
Outline: as §4

[15] = application herbicide amount 320 g/ha

Row | Structure (SMILES) | b: directly sowed rice plant, effect on crop grade [1] | H: Echinochloa crus-galli var. crus-galli, herbicidal effect grade [2, 15] | Herbicidal effect grade, A: Echinochloa oryzacola Vasing. [3] | effect on crop b (directly sowed rice plant), grade 0-5 [4] | g: rapeseed, effect on crop grade [5] | I: Avena fatua, herbicidal effect grade [6] | P: Stellaria media, herbicidal effect grade [7] | M: Abutilon theophrasti, herbicidal effect grade [8, 15] | P: Stellaria media, herbicidal effect grade [9, 15] | Herbicidal effect grade, A: Echinochloa oryzacola Vasing. [10] | herbicidal effect on E, grade 0-5 [11] | L: Apera spica-venti, herbicidal effect grade [12] | F: Digitaria ciliaris, herbicidal effect grade [13] | Herbicidal effect grade, C: Monochoria vaginalis [14] | other results
1 | CCCC(=O)CC1CC(O)=C(c2c(C)cc(C)cc2C)C1=O (stereo not shown) [2-021] | 4 (Herbicidal ratio of 70% or higher and lower than 90%) | 4 (Herbicidal ratio of 70% or higher and lower than 90%) | 4 (Herbicidal ratio of 70% or higher and lower than 90%) | 5 (Herbicidal ratio of 90% or more (almost completely withered)) | 3 (Herbicidal ratio of 40% or higher and lower than 70%) | 3 (Herbicidal ratio of 40% or higher and lower than 70%) | 0 (Herbicidal ratio of 5% or lower (almost no effect)) | 1 (Herbicidal ratio of 5% or higher and lower than 20%) | 0 (Herbicidal ratio of 5% or lower (almost no effect)) | 5 (Herbicidal ratio of 90% or more (almost completely withered)) | 3 (Herbicidal ratio of 40% or higher and lower than 70%) | 0 (Herbicidal ratio of 5% or lower (almost no effect)) | 4 (Herbicidal ratio of 70% or higher and lower than 90%) | 1 (Herbicidal ratio of 5% or higher and lower than 20%) | 
2 | CCC(=O)CC1CC(O)=C(c2c(C)cc(C)cc2C)C1=O (stereo not shown) [2-006] | 4 (Herbicidal ratio of 70% or higher and lower than 90%) | 5 (Herbicidal ratio of 90% or more (almost completely withered)) | 5 (Herbicidal ratio of 90% or more (almost completely withered)) | 5 (Herbicidal ratio of 90% or more (almost completely withered)) | 0 (Herbicidal ratio of 5% or lower (almost no effect)) | 3 (Herbicidal ratio of 40% or higher and lower than 70%) | 0 (Herbicidal ratio of 5% or lower (almost no effect)) | 4 (Herbicidal ratio of 70% or higher and lower than 90%) | 0 (Herbicidal ratio of 5% or lower (almost no effect)) | 5 (Herbicidal ratio of 90% or more (almost completely withered)) | 5 (Herbicidal ratio of 90% or more (almost completely withered)) | 3 (Herbicidal ratio of 40% or higher and lower than 70%) | 3 (Herbicidal ratio of 40% or higher and lower than 70%) | 2 (Herbicidal ratio of 20% or higher and lower than 40%) | 
3 | CON=C(C)CC1CC(OC(=O)N2CCN(C)CC2)=C(c2c(C)cc(C)cc2C)C1=O (stereo not shown) [1-152] |  |  | 4 (Herbicidal ratio of 70% or higher and lower than 90%) | 5 (Herbicidal ratio of 90% or more (almost completely withered)) |  |  |  |  |  | 2 (Herbicidal ratio of 20% or higher and lower than 40%) | 5 (Herbicidal ratio of 90% or more (almost completely withered)) |  |  | 0 (Herbicidal ratio of 5% or lower (almost no effect)) | b: directly sowed rice plant, effect on crop (criteria 0-5) [1]: 5 (Herbicidal ratio of 90% or more (almost completely withered)); H: Echinochloa crus-galli var. crus-galli, herbicidal effect grade ([2]; 320 g/ha): 0 (Herbicidal ratio of 5% or lower (almost no effect)); g: rapeseed, effect on crop (criteria 0-5) [5]: 4 (Herbicidal ratio of 70% or higher and lower than 90%); I: Avena fatua, herbicidal effect (criteria 0-5) [6]: 4 (Herbicidal ratio of 70% or higher and lower than 90%); P: Stellaria media, herbicidal effect (criteria 0-5) [7]: 0 (Herbicidal ratio of 5% or lower (almost no effect)); M: Abutilon theophrasti, herbicidal effect grade ([8]; 320 g/ha): 0 (Herbicidal ratio of 5% or lower (almost no effect)); P: Stellaria media, herbicidal effect grade ([9]; 320 g/ha): 0 (Herbicidal ratio of 5% or lower (almost no effect)); L: Apera spica-venti, herbicidal effect (criteria 0-5) [12]: 5 (Herbicidal ratio of 90% or more (almost completely withered)); F: Digitaria ciliaris, herbicidal effect (criteria 0-5) [13]: 5 (Herbicidal ratio of 90% or more (almost completely withered))
4 | COC(=O)C(C(=O)C1CC1)C1CC(O)=C(c2c(C)cc(C)cc2C)C1=O (stereo not shown) [2-014] | 5 (Herbicidal ratio of 90% or more (almost completely withered)) | 5 (Herbicidal ratio of 90% or more (almost completely withered)) | 4 (Herbicidal ratio of 70% or higher and lower than 90%) | 5 (Herbicidal ratio of 90% or more (almost completely withered)) | 4 (Herbicidal ratio of 70% or higher and lower than 90%) | 4 (Herbicidal ratio of 70% or higher and lower than 90%) | 0 (Herbicidal ratio of 5% or lower (almost no effect)) | 0 (Herbicidal ratio of 5% or lower (almost no effect)) | 0 (Herbicidal ratio of 5% or lower (almost no effect)) | 4 (Herbicidal ratio of 70% or higher and lower than 90%) | 5 (Herbicidal ratio of 90% or more (almost completely withered)) | 4 (Herbicidal ratio of 70% or higher and lower than 90%) | 3 (Herbicidal ratio of 40% or higher and lower than 70%) | 0 (Herbicidal ratio of 5% or lower (almost no effect)) | 
5 | CON=C(C)CC1CC(O)=C(c2c(C)cc(-c3ccc(C)cc3)cc2C)C1=O (mixture of isomers) [6-018] | 5 (Herbicidal ratio of 90% or more (almost completely withered)) | 5 (Herbicidal ratio of 90% or more (almost completely withered)) | 5 (Herbicidal ratio of 90% or more (almost completely withered)) | 5 (Herbicidal ratio of 90% or more (almost completely withered)) | 3 (Herbicidal ratio of 40% or higher and lower than 70%) | 4 (Herbicidal ratio of 70% or higher and lower than 90%) | 3 (Herbicidal ratio of 40% or higher and lower than 70%) | 0 (Herbicidal ratio of 5% or lower (almost no effect)) | 0 (Herbicidal ratio of 5% or lower (almost no effect)) | 5 (Herbicidal ratio of 90% or more (almost completely withered)) | 5 (Herbicidal ratio of 90% or more (almost completely withered)) | 5 (Herbicidal ratio of 90% or more (almost completely withered)) | 5 (Herbicidal ratio of 90% or more (almost completely withered)) | 3 (Herbicidal ratio of 40% or higher and lower than 70%) | 
